Experimental data published in patent publication US20140263071A1, “METHOD FOR COLLECTING METALS” (CHEMEC OY AB, priority 2011, published 2014).
Marks after values point to notes of the source that are not given here.

Columns and labels:
[1] = Collection of gold from TS 5 (Example 21); settings: Au^3+ spiked TS 5, pH 3.0, 1a 5 g
Method: (§1) A test solution containing 1-15 mg/l of Al^3+, Fe^2/3+, Mg^2+, Mn^2+, Ni^2+ and Zn^2+; 0.1-0.9 mg/l of Ca^2+ and Na^+; and trace amount of other Cr^3+, Co^2+, Cu^2+, Eu^3+, La^3+, Nd^3+, Y^3+, UO2^2+ and Nb^5+ cations were prepared.
TS 5 (100 ml) was spiked with Au^3+ (87.7 mg/ml) Merch Titrisol® standard solution. After pH of the mixture was adjusted to 3.0 by HNO3 sample A was taken followed by adding 1a (5 g). The mixture was stirred at room temperature for 24 h and a sample B was taken. Samples A and B were filtrated separately trough 0.2 μm syringe filter and the concentration of selected element in both solution was determined by using ICP-AES method. The expulsion percent for selected elements were determined from the concentration differences between the samples A and B. Results of gold recovery from TS 5 is given in Table 15.

[2] = Simultaneous collection of Ni^2+, Zn^2+, Eu^3+, La^3+, Nd^3+, Y^3+, UO2^2+, Nb^5+ and Zr^4+ from TS 5 (Example 22); settings: TS 5, 1a 1 g/100 ml, 24 h
Method: as §1
TS 5 (100 ml) was stirred with 1a (1 g) at room temperature for 24 h. After filtration trough 0.2 μm syringe filter metal concentration of Ni^2+, Zn^2+, Eu^3+, La^3+, Nd^3+, Y^3+, UO2^2+, Nb^5+ and Zr^4+ were determined by using ICP-AES and ICP-MS methods. The expulsions percent was calculated for each element from the concentration difference between initial and final solutions and the experimental results are given in Table 16.

[3] = Simultaneous collection of Al, Ga and V from TS 5 at pH 0.5 (Example 23); settings: spiked TS 5, pH 0.5, 1a 10 g
Method: as §1
TS 5 (100 ml) was spiked with known amounts of Al^3+, Ga^3+ and V^4+ Merch Titrisol® standard solutions. After pH of the mixture was adjusted to 0.5 by HNO3 sample A was taken followed by adding 1a (10 g). The mixture was stirred at room temperature for 24 h and sample B was taken. Samples A and B were filtrated separately trough 0.2 μm syringe filter and the concentrations of the studied elements in both solution were determined by using ICP-AES method. The expulsion percent for each element were determined from the concentration differences between the sample A and B. The experimental results are given in Table 17.

[4] = Optimal expulsion pH range with minimum expulsion percent, single elements (Example 7)
Method: (§2) A water solution (110 ml) containing known amount of single cationic element or elements, typically 0.5-200 ppm, was prepared from Merch Titrisol® standard solution. After adjusting pH by using acid (e.g. HCl or HNO3) or base (e.g. NaOH) to desired initial value, sample A (10 ml) was taken followed by adding 100 mg of selected solid complexation agent. The mixture was stirred at room temperature for 24 h and sample B (10 ml) was taken. Samples A and B were filtrated separately trough 0.2 μm syringe filter and the concentration of the studied element or elements in both solution was determined by using atomic absorption spectrophotometer. The expulsion percent was determined from the concentration differences between the sample solutions A and B.
Using the above mentioned general procedure optimal expulsion pH ranges for each metal with complexation agent 1a was determined. For each element the expulsion percent was determined in 5-14 different pH value. The obtained results are shown in table below with minimum expulsion percent inside the optimal pH range.

[5] = Separation of Cr(III) from Cr(VI) (Example 14); settings: pH 4.0, 1a 100 mg
Method: as §2
An aqueous solution (100 ml) containing 1.72 ppm of Cr(III) and 1.89 ppm of Cr(VI) was prepared from Merch Titrisol® standard solution and pH was adjusted to 4.0. Following the general procedure described earlier the mixture was treated with 1a (100 mg) and expulsion per for Cr(III) and Cr(VI) were calculated to be 97.0% and 0%, respectively.

Structure (SMILES): NCCCCCCCCCCC(O)(P(=O)(O)O)P(=O)(O)O [Compound 1a, 11-Amino-1-hydroxyundecane-1,1-diyldiphosphonic acid]
- Expulsion [%] ([1]; Al^3+): 87.9%
- Expulsion [%] ([1]; Au^3+): 65.0^1) %
- Expulsion [%] ([1]; Cr^3+): 2.6%
- Expulsion [%] ([1]; Fe^2/3+): ≥ 96.6^2) %
- Expulsion [%] ([1]; Mg^2+): 0%
- Expulsion [%] ([1]; Mn^2+): 0%
- Expulsion [%] ([1]; Ni^2+): 1.3%
- Expulsion [%] ([1]; Zn^2+): 1.4%
- Expulsion [%] ([2]; Eu^3+): 98%
- Expulsion [%] ([2]; La^3+): 100%
- Expulsion [%] ([2]; Nb^5+): 100%
- Expulsion [%] ([2]; Nd^3+): 100%
- Expulsion [%] ([2]; Ni^2+): 72%
- Expulsion [%] ([2]; UO2^2+): 100%
- Expulsion [%] ([2]; Y^3+): 100%
- Expulsion [%] ([2]; Zn^2+): 97%
- Expulsion [%] ([2]; Zr^4+): 100%
- Expulsion [%] ([3]; Al^3+): 99.8^1) %
- Expulsion [%] ([3]; Cr^3+): 0%
- Expulsion [%] ([3]; Fe^2/3+): ≥ 97.0^4) %
- Expulsion [%] ([3]; Ga^3+): 93.2^2) %
- Expulsion [%] ([3]; Mg^2+): 0%
- Expulsion [%] ([3]; Mn^2+): 9%
- Expulsion [%] ([3]; Ni^2+): 0%
- Expulsion [%] ([3]; V^4+): 99.7^3) %
- Expulsion [%] ([3]; Zn^2+): 23%
- Expulsion [%] ([4]; Ag^+, minimum within pH range 1.5-12): >84%
- Expulsion [%] ([4]; Al^3+, minimum within pH range 1-2): >96%
- Expulsion [%] ([4]; Au^3+, minimum within pH range 0-2): >39%
- Expulsion [%] ([4]; Ba^2+, minimum within pH range 3-12): >75%
- Expulsion [%] ([4]; Bi^3+, minimum within pH range 0.5-4): 100%
- Expulsion [%] ([4]; Ca^2+, minimum within pH range 4-12): >50%
- Expulsion [%] ([4]; Cd^2+, minimum within pH range 3-11): >36%
- Expulsion [%] ([4]; Co^2+, minimum within pH range 4-11): >77%
- Expulsion [%] ([4]; Cr^3+, minimum within pH range 2.5-12): >60%
- Expulsion [%] ([4]; Cr^6+, As^3/5+, Ta^5+, within pH range 0-12): <8%
- Expulsion [%] ([4]; Cu^2+, minimum within pH range 3-11): >87%
- Expulsion [%] ([4]; Cu^+, minimum within pH range 3-11): >79%
- Expulsion [%] ([4]; Eu^3+, minimum within pH range 2-8): 70%
- Expulsion [%] ([4]; Fe^2+, minimum within pH range 3-10): >79%
- Expulsion [%] ([4]; Fe^3+, minimum within pH range 1-11): >55%
- Expulsion [%] ([4]; Ga^3+, minimum within pH range 0.5-1): 100%
- Expulsion [%] ([4]; Ga^3+, minimum within pH range 6-11): >90%
- Expulsion [%] ([4]; Hg^2+, minimum within pH range 2-11): >90%
- Expulsion [%] ([4]; Hg^+, minimum within pH range 2-11): >80%
- Expulsion [%] ([4]; Ir^3+, minimum within pH range 0.0-0.5): >65%
- Expulsion [%] ([4]; La^3+, minimum within pH range 0-3.8): >40%
- Expulsion [%] ([4]; Li^+, Na^+, K^+, within pH range 0-12): <5%
- Expulsion [%] ([4]; Mg^2+, minimum within pH range 4-12): >74%
- Expulsion [%] ([4]; Mn^2+, minimum within pH range 4-10): >69%
- Expulsion [%] ([4]; Mo^6+, minimum within pH range 4-10): >55%
- Expulsion [%] ([4]; Nb^5+, minimum within pH range 0-12): >40%
- Expulsion [%] ([4]; Nd^3+, minimum within pH range 2-8): >75%
- Expulsion [%] ([4]; Ni^2+, minimum within pH range 4-11): >40%
- Expulsion [%] ([4]; Os^4+, minimum within pH range 5-7): >40%
- Expulsion [%] ([4]; Pb^2+, minimum within pH range 2-9): >79%
- Expulsion [%] ([4]; Pd^2+, minimum within pH range 7-12): >65%
- Expulsion [%] ([4]; Pt^2+, minimum within pH range 0-1): >60%
- Expulsion [%] ([4]; Rh^3+, minimum within pH range 2-10): >19%
- Expulsion [%] ([4]; Ru^3+, minimum within pH range 2-11): >55%
- Expulsion [%] ([4]; Sb^3+, minimum within pH range 0.5-11): >75%
- Expulsion [%] ([4]; Sc^3+, minimum within pH range 0-12): >80%
- Expulsion [%] ([4]; Si^4+, Se^4/6+, within pH range 0-12): <2%
- Expulsion [%] ([4]; Sn^2+, minimum within pH range 8-10): 100%
- Expulsion [%] ([4]; Sn^4+, minimum within pH range 7-11): >91%
- Expulsion [%] ([4]; Sr^2+, minimum within pH range 4-12): >80%
- Expulsion [%] ([4]; Ti^4+, minimum within pH range 10-12): >35%
- Expulsion [%] ([4]; V^4+, minimum within pH range 0-0.5): >30%
- Expulsion [%] ([4]; W^6+, minimum within pH range 0.5-3): >12%
- Expulsion [%] ([4]; Y^3+, minimum within pH range 1.5-4 >10): >60%
- Expulsion [%] ([4]; Zn^2+, minimum within pH range 4-11): >75%
- Expulsion [%] ([4]; Zr^4+, minimum within pH range 0-4.8-10): 60%
- expulsion per cent for Cr(III) ([5]; 1.72 ppm Cr(III) with 1.89 ppm Cr(VI)): 97.0%
- expulsion per cent for Cr(VI) ([5]; 1.89 ppm Cr(VI) with 1.72 ppm Cr(III)): 0%
